For assay [1], the species on record is Homo sapiens. The assay is described as follows: Destabilization of human wild type internal ribosome entry site A RNA G-quadruplex assessed as melting temperature at 5 uM by CD spectra method (reference value: 80.9 +/- 0.8 degreeC).
The species entered for assay [2] is Homo sapiens. Kind of assay: Destabilization of human 5'-UGAAGAGUGUGAGUAGUA-3' RNA expressed in MCF7 cells assessed as down regulation of VEGF-A translation at up to 0.5 uM after 24 hrs by dual-luciferase reporter gene assay. In kind it is cell-based. For orientation: In a reporter assay the amount or activity of a reporter protein is the signal.
For assay [3], the species on record is Homo sapiens. The assay is described as follows: Destabilization of human wild type internal ribosome entry site A RNA G-quadruplex expressed in MCF7 cells assessed as down regulation of VEGF-A translation at 1.5 uM after 24 hrs by dual-luciferase reporter gene assay relative to control. In kind it is cell-based.
Another assay concerns MCF7. The assay is described as follows: Antitumor activity against human MCF7 cells xenografted in nude Balb/c mouse assessed as tumor weight at 1 mg/kg, ip qd for 20 days. In kind it is functional. For orientation: A xenograft is tissue or cells of one species grown in another, often human tumour cells in immunodeficient mice.

Activity calls are given as the source filed them. The calls are words filed in the database; no cut-off is given here.

Consider `NCCOc1cc(C(=O)Nc2cc(OCCN)c3ccccc3n2)cc(C(=O)Nc2cc(OCCN)c3ccccc3n2)c1`, for which, in the assay listed under Homo sapiens [1], the Tm is > 76 °C. For the same compound, the outcome in the assay filed under Homo sapiens [2] and in the assay listed under Homo sapiens [3] was inactive.

Turning to `COc1cccc2c1C(=O)c1c(O)c3c(c(O)c1C2=O)C[C@@](O)(C(=O)CO)C[C@@H]3O[C@H]1C[C@H](N)[C@H](O)[C@H](C)O1` [DOXORUBICIN], in the assay on MCF7, the Activity is on record as 0.14 g.

The record behind these values is ChEMBL document CHEMBL4014333, “Discovery of Small Molecules for Repressing Cap-Independent Translation of Human Vascular Endothelial Growth Factor (hVEGF) as Novel Antitumor Agents” (J Med Chem, 2017).
